The text below walks through data of US20250297998A1, “SYSTEM AND METHODS FOR MEASURING AIRBORNE GLYCOL” (Grignard Pure LLC, priority 2022, published 2025).

Each structure is given as a SMILES string.

Data set [1] is described as follows: ASTM D93 flash point. Type of data set: physicochemical. An excerpt:
(§1) As a non-limiting example, the sanitizing formulation can include 52.25% TEG by weight, 1.00% PG by weight, and 46.75% water (e.g., deionized water) by weight. The properties of this particular example of the sanitizing formulation (and pure TEG as a comparative reference) is summarized in the table below

Data set [2] is described as follows: Visual appearance and odor. Type of data set: physicochemical.
Source text: as §1

The conditions of data set [3]: cited from earlier work.
Data set [4] is described as follows: PLTL-15 Odor Test. Type of data set: physicochemical.
Source text: as §1

Data set [5] in a line: ASTM D445 kinematic viscosity. Type of data set: physicochemical.
Source text: as §1

Data set [6] can be described thus: ASTM D117 freeze point. The class given is physicochemical.
Source text: as §1

Data set [7] can be described thus: ASTM D1120 boiling point. The class given is physicochemical.
Source text: as §1

Data set [8] is described as follows: ASTM D323 vapor pressure. Type of data set: physicochemical. The settings on record: @ 20° C.
Source text: as §1

Data set [9] can be described thus: ASTM D4052 specific gravity. Type of data set: physicochemical.
Source text: as §1

Consider `OCCOCCOCCO` [Pure TEG, triethylene glycol], for which, in data set [1], the “Flash Point (° C.)” value is 157° ° C. Further, in data set [2], the “Appearance and Odor” value is “Clear/Uniform”. For the same compound, the flash point in [3] (TEG alone, flammable liquid) was 157 °C. Besides, the boiling point – broadly, the temperature of boiling at a given pressure – in data set [3] (at a pressure of 101.325 kPa) was 286.5 °C. Besides, the “Odor Test” value in data set [4] is listed as “No Odor”. Besides, in [5], the “Viscosity, Kinematic @ 40° C.” value was found to be 42.3 cSt. Besides, the “Freeze Point ° C.” value in data set [6] was −7.0° ° C. Also, the “Boiling Point (° C.)” value in data set [7] turned out to be 285° ° C. The “Vapor Pressure (psi)” value in [8] was 0.0 psi @ 20 °C. The “Specific Gravity @ 20° C.” value in data set [9] is recorded as 1.12-1.13.
